We go through nine molecules from ChEMBL document CHEMBL1138196, “Antitrypanosomal activity of 5'-deoxy-5'-(iodomethylene)adenosine and related 6-N-cyclopropyladenosine analogues” (J Med Chem, 2006).

The test system of one assay is Trypanosoma brucei. Put plainly: Antitrypanosomal activity against Trypanosoma brucei. It counts as functional, organism-based.
Assay [1] relates to Vesicular stomatitis virus. The assay is described as follows: Antiviral activity against VSV in BHK cells. Type of assay: functional, organism-based.

≈ marks a conversion by molar mass, not a printed value.

On to `N#C/N=C/[C@H]1O[C@@H](n2cnc3c(NC4CC4)ncnc32)[C@H](O)[C@@H]1O`, for which the IC50 – broadly, the concentration needed to halve the response being measured – in the assay with Trypanosoma brucei came out at 19 µg/mL (≈ 57.7 µM).
Still for that read-out and setting: next, `Nc1ncnc2c1ncn2[C@@H]1O[C@](S)(CO)[C@@H](O)[C@H]1O`: 14 µg/mL (≈ 46.8 µM).
Same read-out and setting: the same measure for `O[C@@H]1[C@H](O)[C@@H](/C=C/I)O[C@H]1n1cnc2c(NC3CC3)ncnc21`: 12 µg/mL (≈ 28 µM).
Consider `Nc1ncnc2c1ncn2[C@@H]1O[C@H](CSCCO)[C@@H](O)[C@H]1O`, for which, in the assay on Trypanosoma brucei, the midpoint of inhibition, the IC50, lay at 0.16 µg/mL (≈ 0.489 µM).
On the same count and under the same terms, the same measure for `Nc1ncnc2c1ncn2[C@@H]1O[C@H](/C=C\I)[C@@H](O)[C@H]1O`: 45 µg/mL (≈ 116 µM).
Molecule `CN(C/C=C\CN)C[C@H]1O[C@@H](n2cnc3c(N)ncnc32)[C@H](O)[C@@H]1O` returned a half-inhibitory concentration (IC50) with Trypanosoma brucei of 0.02 µg/mL (≈ 0.0572 µM).
Take `O[C@@H]1[C@H](O)[C@@H](/C=C/F)O[C@H]1n1cnc2c(NC3CC3)ncnc21`: the IC50 in the assay on Trypanosoma brucei amounted to 19 µg/mL (≈ 59.1 µM).
Still for that read-out and setting: next, `CC(=O)OCCSC[C@H]1O[C@@H](n2cnc3c(N)ncnc32)[C@H](OC(C)=O)[C@@H]1OC(C)=O`: 0.12 µg/mL (≈ 0.265 µM).
As to `Nc1ncnc2c1ncn2[C@@H]1O[C@H](/C=C/I)[C@@H](O)[C@H]1O`, the values for the IC50 (in the assay on Trypanosoma brucei; in assay [1]) were 9 µg/mL (≈ 23.1 µM) and 2 µg/mL (≈ 5.14 µM), respectively.
